Measured values: patent US9133225B2, “Dual targeting anticancer agents” (priority 2013, dated 2015)

How the values were obtained:
HeLa cells = assay: MTT cytotoxicity assay, HeLa; conditions: read-out: cytotoxicity IC50; HeLa, cervical; MTT, 48 h treatment; spread in brackets
Description: (§1) (a) Dulbecco's Modified Eagle Medium (DMEM), Dulbecco's phosphate buffered saline (DPBS), fetal bovine serum (FBS) and 0.25% trypsin/EDTA solutions were purchased from Cellgro (Manassas, Va.). Penicillin-streptomycin solutions were purchased from Mediatech (Manassas, Va.). (b) HeLa (CCL-2TM) cells, A549, A2870, A2870/CP70, MCF-7, PC-3, and MRC-5 cells were purchased from American Type Culture Collection (ATCC, Manassas, Va., USA). (c) HCT116 cells were kindly donated by Laura Trudel (MIT). HeLa, A549, MCF-7, and MRC-5 cells were cultured using DMEM supplemented with 10% FBS and 1% penicillin-streptomycin. A2870, A2870/CP70, and PC-3 cells were cultured in RPMI supplemented with 10% FBS and 1% penicillin-streptomycin. HCT116 cells were cultured in McCoy's supplemented with 10% FBS and 1% penicillin-streptomycin. All cell-culture experiments were performed in the aforementioned media in an incubator operating at 37° C. and in the presence of a humidified atmosphere containing 5.0% CO2. Cells were harvested using a 0.25% trypsin/EDTA solution.
(§2) The cytotoxicity of the compounds was assessed by means of the MTT assay (MTT=3-(4,5-dimethyl-2-thiazolyl)-2,5-diphenyl-2H-tetrazolium bromide). Typically, on day one, ˜1×10^3 cells were seeded into 96-well plates in 100 μL media per well. […] The optical density for each well at 550 nm was measured with a microplate reader.

[1] = test system: A2780 ovarian carcinoma cells; assay: MTT cytotoxicity assay, A2780; conditions: read-out: cytotoxicity IC50; A2780, ovarian; MTT, 48 h treatment; spread in brackets
Description: as §1, §2

[2] = test system: A2780/CP70 cells (CisPt resistant); assay: MTT cytotoxicity assay, A2780/CP70; conditions: read-out: cytotoxicity IC50; A2780/CP70, ovarian (CisPt resistant); MTT, 48 h treatment; spread in brackets
Description: as §1, §2

HCT116 cells = assay: MTT cytotoxicity assay, HCT116; conditions: read-out: cytotoxicity IC50; HCT116, colon; MTT, 48 h treatment; spread in brackets
Description: as §1
(§3) The cytotoxicity of the compounds was assessed by means of the MTT assay (MTT=3-(4,5-dimethyl-2-thiazolyl)-2,5-diphenyl-2H-tetrazolium bromide). Typically, on day one, ˜1×10^3 cells were seeded into 96-well plates in 100 μL media per well. The last row of the plate was left empty as a control for background absorption. The cells were allowed to grow for 24 h in the incubator at 37° C. On day two, a series of drug dilutions in growth media were prepared immediately prior to cell treatment. The media in the wells of the 96 plates were replaced with 100 μL of growth media containing appropriate drug concentrations. The cells were treated for 48 h at 37° C. in the incubator. On day four, a stock solution of MTT (5 mg/mL in PBS buffer) was diluted with media so that, when 100 μL of the media was added to each well, 10 μL of MTT stock was applied. […] The optical density for each well at 550 nm was measured with a microplate reader.

MCF-7 cells = assay: MTT cytotoxicity assay, MCF-7; conditions: read-out: cytotoxicity IC50; MCF-7, breast; MTT, 48 h treatment; spread in brackets
Description: as §1, §3

[3] = test system: MRC-5 non-tumorigenic lung fibroblast cells; assay: MTT cytotoxicity assay, MRC-5; conditions: read-out: cytotoxicity IC50; MRC-5, lung normal; MTT, 48 h treatment; spread in brackets
Description: as §1
The cytotoxicity of the compounds was assessed by means of the MTT assay (MTT=3-(4,5-dimethyl-2-thiazolyl)-2,5-diphenyl-2H-tetrazolium bromide). Typically, on day one, ˜1×10^3 cells were seeded into 96-well plates in 100 μL media per well. The last row of the plate was left empty as a control for background absorption. The cells were allowed to grow for 24 h in the incubator at 37° C. On day two, a series of drug dilutions in growth media were prepared immediately prior to cell treatment. The media in the wells of the 96 plates were replaced with 100 μL of growth media containing appropriate drug concentrations. The cells were treated for 48 h at 37° C. in the incubator. On day four, a stock solution of MTT (5 mg/mL in PBS buffer) was diluted with media so that, when 100 μL of the media was added to each well, 10 μL of MTT stock was applied. The cells were incubated for 2 h and then all the media was replaced with 100 μL of DMSO to dissolve the purple MTT-formazan crystals. The optical density for each well at 550 nm was measured with a microplate reader.

all cell lines = assay: MTT cytotoxicity assay, across the cell lines; assay type: cell-based; conditions: non-tumorigenic lung fibroblast cells (MRC-5) vs ovarian carcinoma cells (A2780)
Description: as §1, §2

Bcl-xL-Bax interactions = target: T1, Bcl-xL-Bax interactions (Homo sapiens, UniProt Q07817); assay: Co-immunoprecipitation of Bcl-xL, probed for Bax; assay type: cell-based; conditions: A549 cells, respective IC50 values, 48 h
T1 construct: endogenous in cells; host or cells: A549
Protocol: (§4) α-TOS is known to disrupt Bcl-xL-Bax interactions, activate Bax, and thus mediate mitochondrial centered apoptotic cell death. Co-immunoprecipitation studies were carried out to determine whether the Pt(IV)-α-TOS conjugates could behave in a similar manner. […] Additional immunoblotting studies were carried to determine the effect of Pt(IV)(α-TOS)(OEt) treatment on transcription. […] Overall Pt(IV)(α-TOS)(OEt) was able to (1) downregulate Bcl-xL expression and (2) inhibit the interaction of Bcl-xL with Bax, a prerequisite for mitochondrial dysfunction. The former is inherent to cisplatin but not α-TOS, and the latter was inherent to α-TOS but not cisplatin.
A549 cells (5×10^5 cells) were incubated with test compound for 48 h at 37° C. […] The resultant cell lysate was treated with protein A-agarose bead slurry (50 μL) and centrifuged to remove proteins that bind non-specifically. Anti Bcl-XL antibody (Cell Signalling Technology) was added to the lysate and incubated for 2 h at room temperature. Protein A-agarose bead slurry (50 μL) was added and the mixture was incubated at 4° C. overnight. Centrifugation allowed separation of the immunocomplex, which was washed with cold RIPA buffer (3×500 μL). The immunocomplex was then suspended in SDS-PAGE loading buffer (50 μL) and incubated at 95° C. for 10 min. The solution containing the immunocomplex was isolated by centrifugation and then analysed for Bax content using the immunoblotting analysis protocol described above.

Bcl-xL = assay: Immunoblotting analysis of Bcl-xL expression; assay type: cell-based; conditions: A549 cells
Protocol: as §4
A549 cells (5×10^5 cells) were incubated with test compound for 48 h at 37° C. Cells were washed with PBS, scraped into SDS-PAGE loading buffer (64 mM Tris-HCl (pH6.8)/9.6% glycerol/2% SDS/5% β-mercaptoethanol/0.01% Bromophenol Blue) and incubated at 95° C. for 10 min. Whole cell lysates were resolved by 4-20% sodium dodecylsulphate polyacylamide gel electrophoresis (SDS-PAGE; 200 V for 1 h) followed by electro transfer to polyvinylidene difluoride membrane, PVDF (350 mA for 1 h). Membranes were blocked in 5% (w/v) non-fat milk in PBST (PBS/0.1% Tween 20) and incubated with the appropriate primary antibodies (Cell Signalling Technology and Santa Cruz). After incubation with horseradish peroxidase-conjugated secondary antibodies (Cell Signalling Technology), immune complexes were detected with the ECL detection reagent (BioRad) and analysed using an Alpha Innotech ChemiImager™ 5500 fitted with a chemiluminescence filter.

T1 sequence (Q07817 whole entry): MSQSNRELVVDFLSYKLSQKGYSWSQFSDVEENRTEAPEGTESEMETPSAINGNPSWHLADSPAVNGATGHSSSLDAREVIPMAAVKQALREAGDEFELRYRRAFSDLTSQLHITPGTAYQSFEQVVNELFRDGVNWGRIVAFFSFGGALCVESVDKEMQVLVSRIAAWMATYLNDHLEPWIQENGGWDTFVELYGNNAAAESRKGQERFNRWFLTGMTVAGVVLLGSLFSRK

CC[O][Pt]([NH2])([NH2])([Cl])([Cl])[O]C(=O)CCC(=O)Oc1c(C)c(C)c2c(c1C)CCC(C)(CCCC(C)CCCC(C)CCCC(C)C)O2 (stereo not drawn) [Pt(IV)(α-TOS)(OEt)]
IC50 (HeLa cells): 1900 nM
IC50 [1]: 20 nM
IC50 [2]: 1100 nM
IC50 (HCT116 cells): 1240 nM
IC50 (MCF-7 cells): 5900 nM
IC50 [3]: 5300 nM
reduction in toxicity for MRC-5 compared to A2780 (all cell lines): 265 fold
Bcl-xL-Bax interaction (Bax associated to the Bcl-xL immunoprecipitate) (Bcl-xL-Bax interactions): reduced Bcl-xL-Bax interactions
Bcl-xL expression (Bcl-xL): induced a reduction in Bcl-xL expression
